{
  "source": "patent US7317037B2",
  "about": "“Progesterone receptor modulators comprising pyrrole-oxindole derivatives and uses thereof” (Wyeth, priority 2004, dated 2008)",
  "biological_target": "T1, progesterone receptor (PR) (Homo sapiens, UniProt P06401)",
  "T1 construct": "Effects of Progestins and Antiprogestins on Alkaline Phosphatase Activity in T47D Cells; endogenous in cells; host or cells: T47D cells",
  "T1 sequence (P06401 1-933)": "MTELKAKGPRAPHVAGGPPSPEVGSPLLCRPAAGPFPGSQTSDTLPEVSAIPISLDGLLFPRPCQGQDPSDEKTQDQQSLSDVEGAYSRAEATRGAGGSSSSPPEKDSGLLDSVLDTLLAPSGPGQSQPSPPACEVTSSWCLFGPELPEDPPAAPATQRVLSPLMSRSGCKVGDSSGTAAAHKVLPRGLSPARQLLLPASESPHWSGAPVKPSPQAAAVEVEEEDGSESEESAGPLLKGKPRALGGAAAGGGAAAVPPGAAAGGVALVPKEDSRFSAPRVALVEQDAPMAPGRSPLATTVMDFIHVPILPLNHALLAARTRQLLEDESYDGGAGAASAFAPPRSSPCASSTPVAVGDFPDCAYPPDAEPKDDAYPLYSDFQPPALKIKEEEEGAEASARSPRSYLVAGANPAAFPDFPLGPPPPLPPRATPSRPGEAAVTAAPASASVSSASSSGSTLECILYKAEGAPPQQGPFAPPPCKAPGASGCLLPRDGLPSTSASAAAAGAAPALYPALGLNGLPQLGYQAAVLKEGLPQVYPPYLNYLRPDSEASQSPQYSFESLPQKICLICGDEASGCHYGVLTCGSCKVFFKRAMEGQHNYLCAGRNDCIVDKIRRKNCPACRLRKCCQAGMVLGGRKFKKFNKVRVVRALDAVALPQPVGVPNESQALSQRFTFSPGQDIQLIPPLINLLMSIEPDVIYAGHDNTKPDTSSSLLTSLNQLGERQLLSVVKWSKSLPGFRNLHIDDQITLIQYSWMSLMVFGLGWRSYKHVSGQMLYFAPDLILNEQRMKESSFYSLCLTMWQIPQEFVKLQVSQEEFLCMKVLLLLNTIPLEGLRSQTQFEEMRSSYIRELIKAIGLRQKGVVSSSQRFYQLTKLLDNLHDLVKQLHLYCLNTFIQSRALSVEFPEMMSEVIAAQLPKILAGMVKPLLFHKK",
  "assay": "T47D cell alkaline phosphatase assay (antagonist mode)",
  "assay_type": "cell-based",
  "procedure": "A. Effects of Progestins and Antiprogestins on Alkaline Phosphatase Activity in T47D Cells (T47D Alkaline Phosphatase Assay)\nCulture medium: DMEM:F12 (1:1) (GIBCO, BRL) supplemented with 5% (v/v) charcoal stripped fetal bovine serum (not heat-inactivated), 100 U/mL penicillin, 100 μg/mL streptomycin, and 2 mM GlutaMax (GIBCO, BRL).\nAlkaline phosphatase assay buffer: I. 0.1M Tris-HCl, pH 9.8, containing 0.2% Triton X-100, 0.1M Tris-HCl, pH 9.8, containing 4 mM p-nitrophenyl phosphate (Sigma).\n2. Cell Culture and Treatment:\nFrozen T47D cells are thawed in a 37° C. water bath and diluted to 280,000 cells/mL in culture medium. To each well in a 96-well plate (Falcon, Becton Dickinson Labware), 180 μl of diluted cell suspension is added. Twenty μl of reference or test compounds diluted in the culture medium is then added to each well. When testing for progestin antagonist activity, reference antiprogestins or test compounds are added in the presence of 1 nM progesterone. The cells are incubated at 37° C. in a 5% CO2 humidified atmosphere for 24 hours. For high throughput screening, one concentration of each compound will be tested at 0.3 μg/mL. Based on an average molecular weight of 300 g/mol for the compounds in the library, the concentration is approximately 1 μM. Subsequently, active compounds will be tested in dose response assays to determine EC50 and IC50.\n3. Alkaline Phosphatase Enzyme Assay:\nAt the end of treatment, the medium is removed from the plate. Fifty μl of assay buffer I is added to each well. The plates are shaken in a titer plate shaker for 15 min. Then 150 μl of assay buffer II is added to each well. Optical density measurements are taken at 5 min intervals for 30 min at a test wavelength of 405 nm.\n4. Analysis of Dose-Response Data.\nFor reference and test compounds, a dose response curve is generated for dose vs. the rate of enzyme reaction (slope). Square root-transformed data are used for analysis of variance and nonlinear dose response curve fitting for both agonist and antagonist modes. Huber weighting is used to down-weight the effects of outliers. EC50 or IC50 values are calculated from the retransformed values. JMP software (SAS Institute, Inc.) is used for both one-way analysis of variance and non-4 linear dose response analysis in both single dose and dose response studies.\nProgesterone and trimegestone are reference progestins and RU486 is the reference antiprogestin. All reference compounds are run in full dose response curves and the EC50 and IC50 values are calculated.",
  "note": "Like-named read-outs stand apart in the source and are kept apart here.",
  "data": [
    {"smiles": "Cn1c(C#N)ccc1-c1cc(F)c2c(c1)C(C)(C)C(=O)N2", "note": "[5-(7-fluoro-3,3-dimethyl-2-oxo-2,3-dihydro-1H-indol-5-yl)-1-methyl-1H-pyrrole-2-carbonitrile]", "values": [
      {"measurement": "IC50", "setting": "PR antagonist, comparative example text, read-out: IC50 in the T47D alkaline phosphatase assay", "result": 3.4, "unit": "nM"},
      {"measurement": "IC50", "setting": "T47D cells, antagonist mode in the presence of 1 nM progesterone, 24 hours, read-out: IC50 (nM), T47D Cell Alkaline Phosphatase Assay", "result": 5.4, "unit": "nM"}
    ]}
  ]
}
